{"source": "paper PMC11676896", "about": "“Protective Action of Cannabidiol on Tiamulin Toxicity in Humans—In Vitro Study” (International Journal of Molecular Sciences, 2024)", "key": {"MDA-MB-231": {"test_system": "MDA-MB-231", "design": "method as in PMID 28399915", "conditions": "MDA-MB-231, dose 6.25–100 µg/mL, treatment period 12–48 h; cited from earlier work"}, "SH-SY5Y cells [1]": {"test_system": "SH-SY5Y cells", "assay": "BrdU assay (DNA synthesis)", "format": "cell-based, human", "conditions": "72 h", "protocol": "(§1) The cytotoxic potential of the veterinary drug and its mixtures with cannabidiol at two non-toxic concentrations: 1.56 and 3.15 µg/mL, on the human SH-SY5Y, HepG2 and HEK 293 cell lines was assessed by decreased viability of the cells within five biochemical endpoints: mitochondrial activity and lysosomal activity (MTT assays, reducing the tetrazolium dye MTT 3-(4,5-dimethylthiazol-2-yl)-2,5-diphenyltetrazolium bromide and neutral red uptake (NRU) assays), total protein content (TPC assay), cellular membrane integrity (leakage lactate dehydrogenase (LDH) assay) and DNA synthesis (the bromodeoxyuridine/5-bromo-2′-deoxyuridine incorporation into the DNA cells (BrdU) assay) after 72 h exposition. Data obtained from the measurement of the optical density in these assays were transformed to percentages in relation to the negative control group (0.1% DMSO in medium), considered to be 100% for the MTT, NRU, TPC and BrdU assays and 0% for the LDH assay. 1% Trition-X 100 solution in medium was used as the positive controls, (Figure 3).\n(§2) The human neuroblastoma (SH-SY5H), hepatoma (HepG2) and kidney cells (HEK 293) cells were purchased from the American Type Culture Collection: ATCCCRL-2266,ATCC HB-8065 and ATCC CRL-1573, respectively. These cells were cultured in Minimum Essential Medium Eagle (MEME) (ATCC). The media were supplemented with 10% FBS, 1% L-glutamine (and 1% antibiotic solution (P4333 Sigma). The cells were maintained in 75 cm^2 cell culture flasks (NUNC) in a humidified incubator at 37 °C in an atmosphere of 5% CO2. The medium was refreshed every two or three days, and the cells were subcultured by 0.25% trypsin–0.02% EDTA after reaching 70–80% confluence. Single cell suspensions were prepared and adjusted to a density of 2 × 10^5 cell/mL^−1 (SH-SY5H), 1 × 10^5 cell/mL^−1 (HepG2) and 1 × 10^5 cell/mL^−1 (HEK-293). The cell suspension was transferred to 96-well plates (100 µL/well) or Lab-Tek chamber slides (8 wells) (Nunc) for staining and incubated for 24 h before the exposure to the studied compounds. Stock solutions of tiamulin fumarate and cannabidiol were prepared in DMSO and diluted with culture medium to obtain a concentration range from 1.56 to 200 µg/mL and 1.56 or 3.156 µg/mL, respectively. The selection of tiamulin concentrations was based on data from the literature and pilot studies. The final concentration of DMSO was 0.1% in the medium. The same final concentrations of the solvent and the 1% Trition-X 100 solution were used as the negative and positive controls, respectively. A total of 500 µM hydrogen peroxide (H2O2) in was used as the positive control in the DCFH assay. […] As a negative control, cultured cells were grown in the absence of studied compounds. Each concentration was tested in six replicates in three independent experiments. Cytotoxicity was assessed after 72 h of exposure of the cells to the compounds. The medium was not changed during the incubation time.\n(§3) Cell proliferation was evaluated by BrdU assay using a Cell Proliferation ELISA, BrdU (colorimetric) kit (Roche, Switzerland), according to manufacturer’s instructions. Briefly, BrdU was incorporated in the place of thymidine into the DNA of cells under division. This BrdU was detected by an anti-BrdU antibody conjugated with peroxidase and the reaction product of the enzyme with the given substrate was quantified by measuring its absorbance. The absorbance (A) was measured at 370 nm and 492 nm in a Synergy 2 Multi-Mode Microplate Reader (BioTek® Instruments Inc., Winooski, VT, USA), using a blank as a reference.\n(§4) This study was performed in three independent experiments. The obtained results are presented as mean values ± SD (standard deviation). The assessment of the cytotoxicity data used a one-way analysis of variance (ANOVA) followed by Dunnett’s post hoc test, which was applied to determine significance relative to the negative control. […]"}, "HEK 293 cells [2]": {"test_system": "HEK 293 cells", "assay": "BrdU assay (DNA synthesis)", "format": "cell-based, human", "protocol": "as §1, §2, §3, §4"}, "HepG2 cells [3]": {"test_system": "HepG2 cells", "assay": "BrdU assay (DNA synthesis)", "format": "cell-based, human", "conditions": "HepG2, 72 h", "protocol": "as §1, §2, §3, §4"}, "[4]": {"test_system": "SH-SY5Y, HepG2 and HEK-293 cells", "assay": "Cellular morphology, May-Grünwald-Giemsa staining", "format": "cell-based, human", "conditions": "May-Grunwald staining", "protocol": "This method was used to illustrate the changes that occurred in cell morphology under the influence of the tested compounds. The staining was performed on 24-well plates. The cells at a density of 1 × 10^5 cells/mL were used. After 24 h of incubation with the examined drugs or without them (control), the culture media was removed and the cells were stained with 1 mL of May–Grünwald dye for 3 min at room temperature. Then, 1 mL of deionized water was added to each plate. After 3 min of incubation at room temperature, the liquid was removed. All the plates were rinsed with deionized water, and then the cells were stained with Giemsa dye (dilution 1:20) for 30 min at room temperature. After this time, the dye was removed and the wells were rinsed with 1 mL of deionized water and then allowed to dry. The images were taken using a light microscope (Zeiss, Obercochem, Germany)."}, "HepG2 cells [5]": {"test_system": "HepG2 cells", "assay": "NRU assay (lysosomal activity)", "format": "cell-based", "conditions": "Homo sapiens, HepG2, 72 h, read-out: inhibited concentration (IC50), NRU", "protocol": "as §1, with “Data obtained from the measurement of the optical density in these assays were transformed to percentages in relation to the negative control group (0.1% DMSO in medium), considered to be 100% for the MTT, NRU, TPC and BrdU assays and 0% for the LDH assay. 1% Trition-X 100 solution in medium was used as the positive controls, (Figure 3).” left out\nThe human neuroblastoma (SH-SY5H), hepatoma (HepG2) and kidney cells (HEK 293) cells were purchased from the American Type Culture Collection: ATCCCRL-2266,ATCC HB-8065 and ATCC CRL-1573, respectively. […] Cytotoxicity was assessed after 72 h of exposure of the cells to the compounds. […]\n(§5) This method is based on staining living cells with neutral red, which readily diffuses through the plasma membrane and accumulates in lysosomes. […] After 10 min of shaking, the absorbance of the dissolved NR was measured using a Synergy 2 Multi-Mode Microplate Reader (BioTek® Instruments Inc., Winooski, VT, USA) at 540 nm using a blank as a reference. […]"}, "CYP3A4": {"test_system": "CYP3A4", "design": "method as in PMID 15013817", "conditions": "cited from earlier work"}, "SH-SY5Y cells [6]": {"test_system": "SH-SY5Y cells", "assay": "NRU assay (lysosomal activity)", "format": "cell-based, human", "conditions": "72 h", "protocol": "as §1\n(§6) The human neuroblastoma (SH-SY5H), hepatoma (HepG2) and kidney cells (HEK 293) cells were purchased from the American Type Culture Collection: ATCCCRL-2266,ATCC HB-8065 and ATCC CRL-1573, respectively. These cells were cultured in Minimum Essential Medium Eagle (MEME) (ATCC). The media were supplemented with 10% FBS, 1% L-glutamine (and 1% antibiotic solution (P4333 Sigma). The cells were maintained in 75 cm^2 cell culture flasks (NUNC) in a humidified incubator at 37 °C in an atmosphere of 5% CO2. The medium was refreshed every two or three days, and the cells were subcultured by 0.25% trypsin–0.02% EDTA after reaching 70–80% confluence. Single cell suspensions were prepared and adjusted to a density of 2 × 10^5 cell/mL^−1 (SH-SY5H), 1 × 10^5 cell/mL^−1 (HepG2) and 1 × 10^5 cell/mL^−1 (HEK-293). The cell suspension was transferred to 96-well plates (100 µL/well) or Lab-Tek chamber slides (8 wells) (Nunc) for staining and incubated for 24 h before the exposure to the studied compounds. Stock solutions of tiamulin fumarate and cannabidiol were prepared in DMSO and diluted with culture medium to obtain a concentration range from 1.56 to 200 µg/mL and 1.56 or 3.156 µg/mL, respectively. […] Cytotoxicity was assessed after 72 h of exposure of the cells to the compounds. […]\nas §5, with “reference. Cytotoxicity was expressed as a percentage of the negative control (0.1% DMSO in medium).” for “reference.”"}, "HEK 293 cells [7]": {"test_system": "HEK 293 cells", "assay": "NRU assay (lysosomal activity)", "format": "cell-based, human", "protocol": "as §1, §6\nas §5, with “reference. Cytotoxicity was expressed as a percentage of the negative control (0.1% DMSO in medium).” for “reference.”"}, "[8]": {"conditions": "Homo sapiens, read-out: inhibited concentration (IC50), BrdU"}}, "note": "Counter-ions that a name gives are not always drawn.", "data": [{"smiles": "C=C[C@]1(C)C[C@@H](OC(=O)CSCCN(CC)CC)[C@]2(C)[C@H](C)CC[C@]3(CCC(=O)[C@H]32)[C@@H](C)[C@@H]1O", "note": "[T, tiamulin fumarate]", "values": [{"measurement": "cell viability", "setting": "MDA-MB-231", "value": "cell viability decreased with increasing dose"}, {"measurement": "tiamulin concentration that inhibited DNA synthesis", "setting": "SH-SY5Y cells [1]", "value": 6.25, "unit": "µg/mL"}, {"measurement": "IC50", "setting": "SH-SY5Y cells [1]; [8]", "value": "9.9 ± 1.1", "unit": "µg/mL"}, {"measurement": "tiamulin concentration that inhibited DNA synthesis", "setting": "HEK 293 cells [2]; HEK-293, 72 h", "value": 12.5, "unit": "µg/mL"}, {"measurement": "IC50", "setting": "HEK 293 cells [2]; Homo sapiens, HEK293, 72 h, read-out: inhibited concentration (IC50), BrdU", "value": "14.6 ± 1.3", "unit": "µg/mL"}, {"measurement": "tiamulin concentration that inhibited DNA synthesis", "setting": "HepG2 cells [3]", "value": 25, "unit": "µg/mL"}, {"measurement": "IC50", "setting": "HepG2 cells [3]; [8]", "value": "13.9 ± 0.8", "unit": "µg/mL"}, {"measurement": "changes in cell morphology", "setting": "[4]", "value": "detachment from the adhesion surface"}, {"measurement": "IC50", "setting": "HepG2 cells [5]", "value": "34.7 ± 1", "unit": "µg/mL"}, {"measurement": "effect on CYP3A4", "setting": "CYP3A4", "value": "strongly blocks CYP3A4"}, {"measurement": "tiamulin concentration that inhibited lysosomal activity", "setting": "SH-SY5Y cells [6]; significant (p ≤ 0.05) vs negative control", "value": 1.56, "unit": "µg/mL"}, {"measurement": "IC50", "setting": "SH-SY5Y cells [6]; Homo sapiens, read-out: inhibited concentration (IC50), NRU", "value": "2.1 ± 0.4", "unit": "µg/mL"}, {"measurement": "tiamulin concentration that inhibited lysosomal activity", "setting": "HEK 293 cells [7]; HEK-293, 72 h", "value": 25, "unit": "µg/mL"}, {"measurement": "IC50", "setting": "HEK 293 cells [7]; Homo sapiens, HEK293, 72 h, read-out: inhibited concentration (IC50), NRU", "value": "34.5 ± 1.1", "unit": "µg/mL"}]}]}
